Consider 2 compounds from paper PMC6759604 (Frontiers in Microbiology, 2019).

Experiment [1] deals with Vp HqsK (VP1876 HK; H-NOX-associated quorum sensing kinase) (Vibrio parahaemolyticus, UniProt Q87NJ2). To be noted: 250 μM OMFP, pH 8.0, room temperature.
Experiment [2] has as its target Vibrio parahaemolyticus HqsK (VP1876) D499A (Vibrio parahaemolyticus) (UniProt Q87NJ2).

Turning to `COc1ccc2c(c1)Oc1cc(OP(=O)(O)O)ccc1C21OC(=O)c2ccccc21` (centres unmarked) [3-O-methyl fluorescein phosphate], the “phosphatase assay, O-methylfluorescein release at 450 nm” value in experiment [1] is “Wild-type HqsK displays increasing OMF fluorescence over time, indicating Vp HqsK has phosphatase activity”. The compound “Vibrio parahaemolyticus H-NOX (VP1877) (from UniProt Q87NJ1 1-179) (natural protein)” registered an inhibition of HqsK autophosphorylation ([gamma-32P]-ATP, SDS-PAGE, autoradiography) by Fe(II)-NO H-NOX; 69.4 uM H-NOX, 5.3 uM HqsK D499A, purified proteins, room temperature, anaerobic in experiment [2] of 75%.
